Reference: ChEMBL document CHEMBL3259797, “Radiosyntheses and in vivo evaluation of carbon-11 PET tracers for PDE10A in the brain of rodent and nonhuman primate” (Bioorg Med Chem, 2014)

Experiments:
Striatum [1] = test: Biodistribution in Sprague-Dawley rat striatum at 14.8 to 18.5 MBq, iv measured at 5 mins post-injection by gamma counting analysis; type: ADME, organism-based; conditions: in vivo
Blood [2] = test: Biodistribution in Sprague-Dawley rat blood at 14.8 to 18.5 MBq, iv measured at 5 mins post-injection by gamma counting analysis; type: ADME, organism-based; conditions: in vivo
Muscle tissue [3] = test: Biodistribution in Sprague-Dawley rat muscle at 14.8 to 18.5 MBq, iv measured at 5 mins post-injection by gamma counting analysis; type: ADME, organism-based; conditions: in vivo
Blood [4] = test: Biodistribution in Sprague-Dawley rat blood at 14.8 to 18.5 MBq, iv measured at 60 mins post-injection by gamma counting analysis; type: ADME, organism-based; conditions: in vivo, 1 h
Kidney [5] = test: Biodistribution in Sprague-Dawley rat kidney at 14.8 to 18.5 MBq, iv measured at 30 mins post-injection by gamma counting analysis; type: ADME, organism-based; conditions: in vivo, 0.5 h
Muscle tissue [6] = test: Biodistribution in Sprague-Dawley rat muscle at 14.8 to 18.5 MBq, iv measured at 30 mins post-injection by gamma counting analysis; type: ADME, organism-based; conditions: in vivo, 0.5 h
Brain [7] = test: Biodistribution in Sprague-Dawley rat brain at 14.8 to 18.5 MBq, iv measured at 30 mins post-injection by gamma counting analysis; type: ADME, organism-based; conditions: in vivo, 0.5 h
Striatum [8] = test: Biodistribution in Sprague-Dawley rat striatum at 14.8 to 18.5 MBq, iv measured at 30 mins post-injection by gamma counting analysis; type: ADME, organism-based; conditions: in vivo, 0.5 h
Lung [9] = test: Biodistribution in Sprague-Dawley rat lung at 14.8 to 18.5 MBq, iv measured at 5 mins post-injection by gamma counting analysis; type: ADME, organism-based; conditions: in vivo
Lung [10] = test: Biodistribution in Sprague-Dawley rat lung at 14.8 to 18.5 MBq, iv measured at 30 mins post-injection by gamma counting analysis; type: ADME, organism-based; conditions: in vivo, 0.5 h
Liver [11] = test: Biodistribution in Sprague-Dawley rat liver at 14.8 to 18.5 MBq, iv measured at 30 mins post-injection by gamma counting analysis; type: ADME, organism-based; conditions: in vivo, 0.5 h
Rattus norvegicus [12] = test: Biodistribution in Sprague-Dawley rat fat at 14.8 to 18.5 MBq, iv measured at 5 mins post-injection by gamma counting analysis; type: ADME, organism-based, Adipose tissue; conditions: in vivo
Liver [13] = test: Biodistribution in Sprague-Dawley rat liver at 14.8 to 18.5 MBq, iv measured at 5 mins post-injection by gamma counting analysis; type: ADME, organism-based; conditions: in vivo
Blood [14] = test: Biodistribution in Sprague-Dawley rat blood at 14.8 to 18.5 MBq, iv measured at 30 mins post-injection by gamma counting analysis; type: ADME, organism-based; conditions: in vivo, 0.5 h
Cerebellum [15] = test: Biodistribution in Sprague-Dawley rat cerebellum at 14.8 to 18.5 MBq, iv measured at 60 mins post-injection by gamma counting analysis; type: ADME, organism-based; conditions: in vivo, 1 h
Liver [16] = test: Biodistribution in Sprague-Dawley rat liver at 14.8 to 18.5 MBq, iv measured at 60 mins post-injection by gamma counting analysis; type: ADME, organism-based; conditions: in vivo, 1 h
Muscle tissue [17] = test: Biodistribution in Sprague-Dawley rat muscle at 14.8 to 18.5 MBq, iv measured at 60 mins post-injection by gamma counting analysis; type: ADME, organism-based; conditions: in vivo, 1 h
Brain [18] = test: Biodistribution in Sprague-Dawley rat brain at 14.8 to 18.5 MBq, iv measured at 5 mins post-injection by gamma counting analysis; type: ADME, organism-based; conditions: in vivo
Heart [19] = test: Biodistribution in Sprague-Dawley rat heart at 14.8 to 18.5 MBq, iv measured at 30 mins post-injection by gamma counting analysis; type: ADME, organism-based; conditions: in vivo, 0.5 h
Heart [20] = test: Biodistribution in Sprague-Dawley rat heart at 14.8 to 18.5 MBq, iv measured at 5 mins post-injection by gamma counting analysis; type: ADME, organism-based; conditions: in vivo
Kidney [21] = test: Biodistribution in Sprague-Dawley rat kidney at 14.8 to 18.5 MBq, iv measured at 60 mins post-injection by gamma counting analysis; type: ADME, organism-based; conditions: in vivo, 1 h
Nucleic Acid = test: Ratio of drug level in striatum to cerebellum in Sprague-Dawley rat at 14.8 to 18.5 MBq, iv measured at 30 mins post-injection by gamma counting analysis; type: ADME, organism-based; conditions: in vivo, 0.5 h
Kidney [22] = test: Biodistribution in Sprague-Dawley rat kidney at 14.8 to 18.5 MBq, iv measured at 5 mins post-injection by gamma counting analysis; type: ADME, organism-based; conditions: in vivo
Rattus norvegicus [23] = test: Biodistribution in Sprague-Dawley rat fat at 14.8 to 18.5 MBq, iv measured at 30 mins post-injection by gamma counting analysis; type: ADME, organism-based, Adipose tissue; conditions: in vivo, 0.5 h
Lung [24] = test: Biodistribution in Sprague-Dawley rat lung at 14.8 to 18.5 MBq, iv measured at 60 mins post-injection by gamma counting analysis; type: ADME, organism-based; conditions: in vivo, 1 h
Striatum [25] = test: Biodistribution in Sprague-Dawley rat striatum at 14.8 to 18.5 MBq, iv measured at 60 mins post-injection by gamma counting analysis; type: ADME, organism-based; conditions: in vivo, 1 h
Rattus norvegicus [26] = test: Biodistribution in Sprague-Dawley rat fat at 14.8 to 18.5 MBq, iv measured at 60 mins post-injection by gamma counting analysis; type: ADME, organism-based, Adipose tissue; conditions: in vivo, 1 h
Cerebellum [27] = test: Biodistribution in Sprague-Dawley rat cerebellum at 14.8 to 18.5 MBq, iv measured at 30 mins post-injection by gamma counting analysis; type: ADME, organism-based; conditions: in vivo, 0.5 h
Heart [28] = test: Biodistribution in Sprague-Dawley rat heart at 14.8 to 18.5 MBq, iv measured at 60 mins post-injection by gamma counting analysis; type: ADME, organism-based; conditions: in vivo, 1 h
Cerebellum [29] = test: Biodistribution in Sprague-Dawley rat cerebellum at 14.8 to 18.5 MBq, iv measured at 5 mins post-injection by gamma counting analysis; type: ADME, organism-based; conditions: in vivo
Brain [30] = test: Biodistribution in Sprague-Dawley rat brain at 14.8 to 18.5 MBq, iv measured at 60 mins post-injection by gamma counting analysis; type: ADME, organism-based; conditions: in vivo, 1 h

Drug uptake (Striatum [1]) [% ID/g]	Drug uptake (Blood [2]) [% ID/g]	Drug uptake (Muscle tissue [3]) [% ID/g]	Drug uptake (Blood [4]) [% ID/g]	Drug uptake (Kidney [5]) [% ID/g]	Drug uptake (Muscle tissue [6]) [% ID/g]	Drug uptake (Brain [7]) [% ID/g]	Drug uptake (Striatum [8]) [% ID/g]	Drug uptake (Lung [9]) [% ID/g]	Drug uptake (Lung [10]) [% ID/g]	Drug uptake (Liver [11]) [% ID/g]	Drug uptake (Rattus norvegicus [12]) [% ID/g]	Drug uptake (Liver [13]) [% ID/g]	Drug uptake (Blood [14]) [% ID/g]	Drug uptake (Cerebellum [15]) [% ID/g]	Drug uptake (Liver [16]) [% ID/g]	Drug uptake (Muscle tissue [17]) [% ID/g]	Drug uptake (Brain [18]) [% ID/g]	Drug uptake (Heart [19]) [% ID/g]	Drug uptake (Heart [20]) [% ID/g]	SMILES	also measured
0.151	0.099	0.146	0.067	0.645	0.093	0.025	0.083	0.643	0.156	4.43	0.066	3.312	0.067	0.015	4.588	0.052	0.091	0.132	0.335	Cn1ncc(-c2ccncc2)c1-c1ccc(OCc2cc(O[11CH3])c3ccccc3n2)cc1	Drug uptake (Kidney [21]): 0.575 % ID/g; Ratio (Nucleic Acid): 3.6; Drug uptake (Kidney [22]): 1.744 % ID/g; Drug uptake (Rattus norvegicus [23]): 0.139 % ID/g; Drug uptake (Lung [24]): 0.107 % ID/g; Drug uptake (Striatum [25]): 0.037 % ID/g; Drug uptake (Rattus norvegicus [26]): 0.139 % ID/g; Drug uptake (Cerebellum [27]): 0.024 % ID/g; Drug uptake (Heart [28]): 0.103 % ID/g; Drug uptake (Cerebellum [29]): 0.094 % ID/g; Drug uptake (Brain [30]): 0.015 % ID/g
0.293	0.282	0.151	0.21	0.883	0.175	0.105	0.16	0.744	0.389	3.172	0.139	5.357	0.275	0.066	1.724	0.129	0.249	0.264	0.416	Cn1cc(-c2ccncc2)c(-c2ccc(OCc3ccc4cc(O[11CH3])ccc4n3)cc2)n1	Drug uptake (Kidney [21]): 0.637 % ID/g; Drug uptake (Kidney [22]): 1.333 % ID/g; Drug uptake (Rattus norvegicus [23]): 0.221 % ID/g; Drug uptake (Lung [24]): 0.249 % ID/g; Drug uptake (Striatum [25]): 0.089 % ID/g; Drug uptake (Rattus norvegicus [26]): 0.135 % ID/g; Drug uptake (Cerebellum [27]): 0.09 % ID/g; Drug uptake (Heart [28]): 0.182 % ID/g; Drug uptake (Cerebellum [29]): 0.251 % ID/g; Drug uptake (Brain [30]): 0.074 % ID/g
